# Laboratory results: PMC4363603, “Inhibitory Effects of Chemical Compounds Isolated from the Rhizome of Smilax glabra on Nitric Oxide and Tumor Necrosis Factor-α Production in Lipopolysaccharide-Induced RAW264.7 Cell” (Evidence-based Complementary and Alternative Medicine : eCAM, 2015)
# Columns and labels:
# Format in all cases: cell-based, mouse
# [1] = test system: TNF-α production in LPS-induced RAW264.7 cells; assay: TNF-α production in LPS-induced RAW264.7 cells (ELISA); settings: for IC50: Mus musculus, LPS-induced RAW264.7 cells; for inhibitory effect on LPS-induced TNF-α production (in words): RAW264.7 cells, compounds at [IC10] × 1, × 10^−1, × 10^−2
# Method: (§1) The mouse macrophage-derived RAW264.7 cell line was purchased from Sun Yat-Sen University, Guangzhou, China, and maintained at 37°C in a humidified atmosphere containing 5% CO2 in Dulbecco's modified eagle medium (DMEM) supplemented with 10% heat-inactivated fetal bovine serum (FBS), penicillin (100 U/mL), and streptomycin (100 μg/mL). Cells in exponential growth phase were used for experiments.
# RAW264.7 cells (3 × 10^6 cells/mL) were seeded onto 24-well culture plate and incubated for 12 h. The cells were then pretreated with various concentrations of the isolated compounds for 2 h before stimulation with LPS (100 ng/mL) with or without samples for 12 h. Supernatants were then collected and the TNF-α concentrations in the medium were determined using commercially available ESISA kits according to the manufacturer's instructions as described in previous study.
# (§2) Figure 4 The inhibitory effects of the isolated compounds on NO (a) and TNF-α (b) productions in LPS-induced RAW264.7 cells. Cells were seeded into 24-well plates and incubated for 12 h and then treated with or without different concentrations of compounds for 24 h (for NO) or […] (for TNF-α). The culture supernatant was analyzed for nitrite and TNF-α production. Results shown are representative of three separate experiments.
# [2] = test system: NO production in LPS-induced RAW264.7 cells; assay: Nitric oxide production in LPS-induced RAW264.7 cells (Griess assay); settings: for inhibitory effect on LPS-induced NO production (in words): compounds at [IC10] × 1, × 10^−1, × 10^−2
# Method: as §1
# Nitrite accumulation, as an indicator of NO production in the culture medium, was measured with the Griess reagent as reported previously. RAW264.7 cells were plated into 96-well plate at a density of 3 × 10^6 cells/mL. After 12 h incubation, cells were stimulated by LPS (100 ng/mL) with or without samples for 24 h. Subsequently, the supernatant (100 μL) was harvested and mixed with an equal volume of Griess reagent (0.1% N-(1-naphthyl) ethylenediamine dihydrochloride, 1% sulfanilamide, and 2.5% H3PO4) and stood for 15 min at room temperature in the dark. NO production was determined by measuring absorbance at 540 nm and was converted to nitrite concentration by reference to a standard curve generated with sodium nitrite.
# Figure 1 Effects of ethanol extract of S. glabra (ESG) and its four subfractions (ESG-1, ESG-2, ESG-3, and ESG-4) on RAW264.7 cells viability and LPS-induced NO production. Cells viability (a) was tested by MTT assay; higher value of optical density at 490 nm means higher cell viability. Nitrite accumulated in cell culture supernatants was determined by Griess assay as an index for NO release (b). Cells were treated with LPS (1 μg/mL) for 24 h in the absence or presence of samples (1.6, 8.0, 40, and 200.0 μg/mL). The data were presented as mean ± S.D. (n = 5). Dexamethasone (DMS) was employed as a positive control. # and ###, respectively, mean P < 0.05 and P < 0.001 compared with control group. ∗, ∗∗, and ∗∗∗, respectively, mean P < 0.05, P < 0.01, and P < 0.001 compared with group treated with LPS alone.
# as §2
# RAW264.7 cells = assay: MTT cell viability (cytotoxicity) assay; settings: 24 h incubation, concentration inhibiting 10% of cell proliferation, improved Karber methodology, defined as highest noncytotoxic concentration
# Method: as §1
# The cytotoxicity of the isolated compounds toward RAW264.7 was evaluated by a conventional MTT assay as reported previously. RAW264.7 cells (1 × 10^5 cells/well) were inoculated to 96-well plates and incubated for 12 h and then treated with different concentrations of compounds. After additional 24 h incubation, 10 μL of MTT solution ([…]) was added to each well, and the plate was incubated for another 4 h. The medium was discarded and 150 μL of dimethyl sulfoxide (DMSO) was added to each well, solubilizing formazan. After 15 min incubation, absorbance at 570 nm was read using a microplate reader. The percent viability was calculated using the following formula: (1) Cell viability%=[…].
# The anti-inflammatory activities of the isolates were tested in vitro for inhibiting the NO and TNF-α production in LPS-induced RAW264.7 cells. Firstly, the cytotoxicity of these compounds cells on the proliferation of RAW264.7 cells was measured by MTT assay. The IC10 value of each compound (Table 1), at which 10% of cells proliferation was inhibited, was calculated with an improved Karber methodology and defined as the highest noncytotoxic concentration. While the dose is ≤IC10, the effect of the isolated compound on RAW264.7 cells could be neglected. In the following experiments, the concentrations of each compound were set at [IC10] × 1, [IC10] × 10^−1, and [IC10] × 10^−2 levels.
IC50 [1],SMILES,inhibitory effect on LPS-induced TNF-α production (in words) [1],inhibitory effect on LPS-induced NO production (in words) [2],IC10 values (RAW264.7 cells),also measured
< 16.6 µM,"COc1cc(C(O)C(CO)C(CO)C(O)c2cc(OC)c(O)c(OC)c2)cc(OC)c1O (centres unmarked) [Comp. 5, 1,4-bis(4-hydroxy-3,5-dimethoxyphenyl)-2,3-bis(hydroxymethyl)-1,4-butanediol]",high inhibitory effects,moderate suppression effects,166.0 ± 9.7 µM,–
–,"CC1CCCCCCCc2cc(O)cc(O)c2C(=O)O1 (centres unmarked) [Comp. 3, de-O-methyllasiodiplodin]",–,moderate suppression effects,154.3 ± 20.5 µM,–
–,"COc1cc(C2c3c(cc(OC)c(O)c3OC)CC(CO)C2CO)cc(OC)c1O (centres unmarked) [Comp. 6, lyoniresinol]",–,lowest inhibitory effects,238.1 ± 31.6 µM,"inhibition at 238.1 µM ([2]; Mus musculus, compound at level of IC10, 238.1 μM): 32.7%"
–,"O=C1c2c(O)cc(O)cc2O[C@H](c2ccc(O)cc2)[C@H]1O [Comp. 9, dihydrokaempferol]",–,lowest inhibitory effects,139.4 ± 10.3 µM,"inhibition at 139.4 µM ([2]; Mus musculus, compound at level of IC10, 139.4 μM): 21.3%"
–,"COC(=O)/C=C/c1ccc(O)c(O)c1 [Comp. 8, trans-caffeic acid methyl ester]",–,–,5.2 ± 3.2 µM,–
–,"COc1cc(C(=O)O)cc(OC)c1O [Comp. 4, syringic acid]",–,significant inhibitory effects,5.1 ± 4.2 µM,"inhibition at 0.5 µM ([2]; Mus musculus, compound at 0.5 μM): ~19%; inhibition at 5.1 µM ([2]; Mus musculus, compound at 5.1 μM): ~25%"
< 4.4 µM,"Oc1ccc(/C=C/c2cc(O)cc(O)c2)cc1 [Comp. 7, trans-resveratrol]",high inhibitory effects,significant inhibitory effects,4.4 ± 5.7 µM,"inhibition at 0.4 µM ([2]; Mus musculus, compound at 0.4 μM): ~32%; inhibition at 4.4 µM ([2]; Mus musculus, compound at 4.4 μM): ~48%"
–,"COc1cc(O)cc2c1C(=O)O[C@@H](C)CCCCCCC2 [Comp. 2, lasiodiplodin]",–,moderate suppression effects,147.9 ± 15.4 µM,–
< 2.3 µM,"COc1cc([C@H]2OC[C@H]3[C@@H]2CO[C@@H]3c2cc(OC)c(O)c(OC)c2)cc(OC)c1O [Comp. 1, syringaresinol]",high inhibitory effects,moderate suppression effects,23.9 ± 1.8 µM,–
